Experimental data as given in article PMC2950902 (Molecular Microbiology, 2010).

Columns and labels:
P1 ParA [1] = biological target: T1, P1 ParA (Escherichia coli, UniProt P07620); test: MANT-nucleotide fluorescence; assay type: binding; details: unlabelled ADP
T1 sequence (P07620 1-398): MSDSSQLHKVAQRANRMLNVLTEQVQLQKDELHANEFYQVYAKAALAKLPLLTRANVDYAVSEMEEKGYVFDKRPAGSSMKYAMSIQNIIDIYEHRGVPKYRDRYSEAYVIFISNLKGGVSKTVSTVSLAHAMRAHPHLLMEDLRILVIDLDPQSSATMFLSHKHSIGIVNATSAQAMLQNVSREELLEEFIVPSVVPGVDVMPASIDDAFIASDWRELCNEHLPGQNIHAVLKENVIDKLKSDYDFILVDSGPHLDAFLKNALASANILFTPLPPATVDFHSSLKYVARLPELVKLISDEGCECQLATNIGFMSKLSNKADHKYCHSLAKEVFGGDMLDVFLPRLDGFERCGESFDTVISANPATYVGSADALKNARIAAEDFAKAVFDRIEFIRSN

P1 ParA [2] = biological target: T1, P1 ParA; test: tryptophan fluorescence change; assay type: binding; details: 1 mM nucleotide, Mg2+, 23°C

| SMILES | apparent Kd (P1 ParA [1]) | tryptophan fluorescence change (P1 ParA [2]) |
| --- | --- | --- |
| Nc1ncnc2c1ncn2[C@@H]1O[C@H](COP(=O)(O)OP(=O)(O)O)[C@@H](O)[C@H]1O [ADP] | MANT-ADP bound ParA with similar affinity as ADP | – |
| Nc1ncnc2c1ncn2[C@@H]1O[C@H](COP(=O)(O)OP(=O)(O)OP(O)(O)=S)[C@@H](O)[C@H]1O [ATPγS] | – | ADP and ATPγS induced a small but reproducible increase in fluorescence |
